# Measured values reported in paper PMC6101033 (Neuron, 2017).
# Columns and labels:
# [1] = tested on: RhoA; test: RhoA2G FRET sensor imaging in hippocampal neurons; details: AP5 1μM + ADDLs; dendritic shaft; Figure S4E
# [2] = tested on: calcium signaling in hippocampal neurons; test: RCaMP calcium sensor imaging in hippocampal neurons; details: for baseline calcium in dendrites, VGCC blockers: all 1μM, sustained (1 min mean) ΔF/F of shaft ROIs, n=3–11 neurons, p<0.03 vs control imaging period; for inhibition of dendritic calcium in neurons lacking T-type channels: shCaV3.1-3.3, Figure S5E
# [3] = tested on: T-type calcium channels; test: whole-cell T-type; assay type: cell-based, Long-Evans rat; details: for T-type current inhibition, blockers: 1μM; for LV currents in neurons lacking all T-type channels: shCaV3.1-3.3, Figure S6F
# [4] = tested on: T-type calcium channels; test: T-type currents in acute hippocampal slices; design: species or system mouse; details: NNC added to slice; Figure S8E
# [5] = tested on: CA1 pyramidal neurons (Schaffer collateral-CA1 synapses)
# [6] = tested on: hippocampal neurons; test: cell health and dendritic spine integrity under blockers; assay type: cell-based, Long-Evans rat; details: hippocampal slice cultures; data not shown
# [7] = tested on: T-type channel; details: ref Yamamoto et al, 2013; cited from earlier work
# [8] = tested on: LTP; details: ref Moriguchi et al., 20012; cited from earlier work
# [9] = tested on: hippocampal neurons; details: ref Wills et al., 2012; cited from earlier work
# [10] = AP5 1μM + ADDLs, dendritic shaft, Figure S4E
molecule,measurement,setting,value
NC(CCCP(=O)(O)O)C(=O)O (stereo not drawn) [AP5],long-term RhoA activation by ADDLs under NMDAR inhibition,[1],long-term activation of RhoA and inhibition of calcium signaling is preserved
same,acute calcium response to ADDLs under NMDAR inhibition,[2]; [10],acute calcium responses to ADDLs in the dendritic shaft of neurons are lost
same,long-term calcium inhibition by ADDLs under NMDAR inhibition,[2]; [10],long-term activation of RhoA and inhibition of calcium signaling is preserved
CC(C)[C@H]1c2ccc(F)cc2CC[C@@]1(CCN(C)CCCc1nc2ccccc2[nH]1)OC(=O)C1CC1 [NNC],"T-type current inhibition, blockers",[3],ADDL’s inhibition of T-type currents was comparable to T-type channel blockers NNC and TTA-P2
same,LV currents in neurons lacking all T-type channels,[3],neither NNC or TTAP2 inhibit LV currents in neurons lacking all T-type channels
same,LV currents in acute hippocampal slice,[4],inhibits LV currents in our acute hippocampal slice recording
same,"LTP rescue under ADDLs by ROCK inhibition or NgR loss, effect of NNC","[5]; NNC 10μM + ADDL + Y27632 (10μM) or NgR^NNN, p<0.04",reverses the capacity of ROCK inhibition (Y27632) or NgR loss (NgR^NNN) to rescue neurons from ADDL-mediated LTP reduction
same,"LTP, NNC combined with ADDLs","[5]; NNC 10μM + ADDL, fEPSC 55–60 min, n=6–8 animals/slices per condition",no greater inhibition of LTP than either ADDL or NNC alone
same,"LTP, T-type channel blocker","[5]; NNC 10μM, 6 months mice, fEPSC 55–60 min, p<0.001 vs CON",inhibits LTP in acute hippocampal slices
same,"effects on dendritic spines, NNC",[6],no pathological effects on dendritic spines in hippocampal slice cultures
same,"baseline calcium in dendrites, VGCC blockers",[2],elicited the largest reductions in baseline calcium in dendrites
same,inhibition of dendritic calcium in neurons lacking T-type channels,[2],eliminates NNC and TTA-P2’s inhibition of calcium signaling in dendrites
"O=C1N=C2C=CC=CN2C12Cc1ccccc1C2 [STK101, spiro[imidazo-[1,2-a]pyridine-3,2-indan]-2(3H)-one]",T-type channel agonism,[7],T-type channel agonist
same,LTP,[8],enhances LTP
CC1(C)C[C@@H](CN2CCC(F)(CNC(=O)c3cc(Cl)cc(Cl)c3)CC2)CCO1 [TTA-P2],"T-type current inhibition, blockers",[3],ADDL’s inhibition of T-type currents was comparable to T-type channel blockers NNC and TTA-P2
same,LV currents in neurons lacking all T-type channels,[3],neither NNC or TTAP2 inhibit LV currents in neurons lacking all T-type channels
same,"baseline calcium in dendrites, VGCC blockers",[2],elicited the largest reductions in baseline calcium in dendrites
same,inhibition of dendritic calcium in neurons lacking T-type channels,[2],eliminates NNC and TTA-P2’s inhibition of calcium signaling in dendrites
C[C@@H](N)[C@H]1CC[C@H](C(=O)Nc2ccncc2)CC1 [Y27632],reversal of ADDL block of T-type currents,[3]; Y27632 1μM + ADDLs,reverses ADDL’s block of T-type channel currents
same,"LTP, reversal of ADDL inhibition","[5]; Y27632 1μM preincubation + ADDLs 150 nM, fEPSC 55–60 min, p<0.05 vs ADDL",reverses ADDL’s inhibition of LTP
same,"LTP, ROCK inhibitor alone","[5]; Y27632 1μM, control neurons, no ADDLs, p<0.03 vs CON (WT)",blocks LTP
same,"neuron health, Y27632",[9],no deleterious effects on neuron health
same,ADDL inhibition of dendritic calcium under ROCK inhibition,"[2]; Y27632 1μM, 10 minutes, then ADDLs 150nM, n=3 neurons",ADDL-mediated inhibition of dendritic calcium signaling in neurons is lost
same,"RCaMP activity in the dendritic shaft, ROCK inhibitor","[2]; Y27632 1μM, 1 min mean ΔF/F, shaft ROIs",marked rise in RCaMP activity in the dendritic shaft of neurons
same,ADDL inhibition of dendritic calcium after washout of Y27632,"[2]; washout 10 minutes, then ADDLs 150nM, n=3 neurons, p<0.001 vs CON","following a washout of Y27632, ADDL’s inhibition of dendritic calcium signaling is restored"
COCCOC(=O)C1=C(C)NC(C)=C(C(=O)OC(C)C)C1c1cccc([N+](=O)[O-])c1 (stereo not drawn) [nimodipine],"LTP, L-type channel blocker","[5]; Nimodipine 1μM, 6 months mice, fEPSC 55–60 min",no effect on LTP
lysophosphatidic acid [LPA],"T-type currents, RhoA activator","[3]; LPA 1μM vs ADDLs 150nM, 14–18 DIV",inhibits T-type currents with a magnitude comparable to that of ADDLs
